Laboratory results published in patent US20260008787A1, “FUSED RING KRAS INHIBITORS FOR TREATING DISEASE” (BLOSSOMHILL THERAPEUTICS, INC., priority 2022, published 2026).

Legend:
Assay type in all cases: cell-based
Conditions in all cases: 384-well, CellTiter-Glo 2.0
[1] = system: SW620 (KRAS G12V); assay: Cell proliferation assay (CellTiter-Glo, 72 hours), SW620
Experimental: (§1) Two thousand KRAS mutant cells per well were seeded in 384-well white plate and then treated with indicated compounds for 72 hours at 37° C. and 5% CO2. Cell proliferation was measured using CellTiter-Glo 2.0 luciferase-based ATP detection assay (Promega, Madison, WI) following the manufacturer's protocol. IC50 values were determined using Prism software (GraphPad Software, San Diego, CA).

[2] = system: GP2D (KRAS G12D); assay: Cell proliferation assay (CellTiter-Glo, 72 hours), GP2D
Experimental: as §1

[3] = system: AGS (G12D); assay: Cell proliferation assay (CellTiter-Glo, 72 hours), AGS
Experimental: as §1

Compound	IC50 ([1]; Homo sapiens, SW-620, 72 h)	IC50 ([2]; GP2d, 72 h)	IC50 ([3]; 72 h)	IC50 [1]	IC50 [2]	IC50 [3]
C#Cc1c(F)ccc2cc(O)cc(-c3nc4c5c(nc(OC[C@@]67CCCN6C[C@H](F)C7)nc5c3F)N[C@@H](CCOC)CO4)c12 [Example 48, 5-ethynyl-6-fluoro-4-[(9S)-4-fluoro-2-{[(2R,7aS)-2-fluorotetrahydro-1H-pyrrolizin-7a(5H)-yl]methoxy}-9-(2-methoxyethyl)-9,10-dihydro-8H-7-oxa-1,3,6,10-tetraazacyclohepta[1,2,3-de]naphthalen-5-yl]naphthalen-2-ol]	> 3000 nM	2200 nM	> 3000 nM	–	–	–
C#Cc1c(F)ccc2cc(O)cc(-c3nc4c5c(nc(OC[C@@]67CCCN6C[C@H](F)C7)nc5c3F)N(C)[C@@H](C(C)C)CO4)c12 [Example 51, 5-ethynyl-6-fluoro-4-[(9S)-4-fluoro-2-{[(2R,7aS)-2-fluorotetrahydro-1H-pyrrolizin-7a(5H)-yl]methoxy}-10-methyl-9-(propan-2-yl)-9,10-dihydro-8H-7-oxa-1,3,6,10-tetraazacyclohepta[1,2,3-de]naphthalen-5-yl]naphthalen-2-ol]	2270 nM	216 nM	> 3000 nM	–	–	–
C#Cc1c(F)ccc2cc(O)cc(-c3nc4c5c(nc(OC[C@@]67CCCN6C[C@H](F)C7)nc5c3F)N(C(C)C)[C@@H](C)CO4)c12 [Example 56, 5-ethynyl-6-fluoro-4-[(9S)-4-fluoro-2-{1[(2R,7aS)-2-fluorotetrahydro-1H-pyrrolizin-7a(5H)-yl]methoxy}-9-methyl-10-(propan-2-yl)-9,10-dihydro-8H-7-oxa-1,3,6,10-tetraazacyclohepta[1,2,3-de]naphthalen-5-yl]naphthalen-2-ol]	3.51 nM	2.45 nM	5.14 nM	–	–	–
C#Cc1c(F)ccc2cc(O)cc(-c3nc4c5c(nc(OC[C@@]67CCCN6C[C@H](F)C7)nc5c3F)N3CCOC[C@H]3CO4)c12 [Example 58, 5-ethynyl-6-fluoro-4-[(8aS)-4-fluoro-2-{[(2R,7aS)-2-fluorotetrahydro-1H-pyrrolizin-7a(5H)-yl]methoxy}-8a,9,11,12-tetrahydro-8H-7,10-dioxa-1,3,6,12a-tetraazabenzo[4,5]cyclohepta[1,2,3-de]naphthalen-5-yl]naphthalen-2-ol]	43.1 nM	36.7 nM	59.4 nM	–	–	–
C#Cc1c(F)ccc2cc(O)cc(-c3nc4c5c(nc(OC[C@@]67CCCN6C/C(=C\F)C7)nc5c3F)N3CCCC[C@H]3CO4)c12 [Example 76, 5-ethynyl-6-fluoro-4-[(8aS)-4-fluoro-2-{[(2Z,7aS)-2-(fluoromethylidene)tetrahydro-1H-pyrrolizin-7a(5H)-yl]methoxy}-8,8a,9,10,11,12-hexahydro-7-oxa-1,3,6,12a-tetraazabenzo[4,5]cyclohepta[1,2,3-de]naphthalen-5-yl]naphthalen-2-ol]	–	–	–	11.6 nM	3.35 nM	12.3 nM
C#Cc1c(F)ccc2cc(O)cc(-c3nc4c5c(nc(OC[C@@]67CCC[N+]6(C)C[C@H](F)C7)nc5c3F)N[C@@H](C)CO4)c12 (stereo partly drawn) [Example 77, (2R,7aS)-7a-({[(9S)-5-(8-ethynyl-7-fluoro-3-hydroxynaphthalen-1-yl)-4-fluoro-9-methyl-9,10-dihydro-8H-7-oxa-1,3,6,10-tetraazacyclohepta[1,2,3-de]naphthalen-2-yl]oxy}methyl)-2-fluoro-4-methylhexahydro-1H-pyrrolizin-4-ium]	> 3000 nM	1350 nM	> 3000 nM	–	–	–
C#Cc1c(F)ccc2cc(O)cc(-c3nc4c5c(nc(OC[C@@]67CCCN6C[C@H](F)C7)nc5c3F)N(Cc3ccccc3)[C@@H](CO)CO4)c12 [Example 80, 4-[(9S)-10-benzyl-4-fluoro-2-{[(2R,7aS)-2-fluorotetrahydro-1H-pyrrolizin-7a(5H)-yl]methoxy}-9-(hydroxymethyl)-9,10-dihydro-8H-7-oxa-1,3,6,10-tetraazacyclohepta[1,2,3-de]naphthalen-5-yl]-5-ethynyl-6-fluoronaphthalen-2-ol]	> 3000 nM	> 3000 nM	> 3000 nM	–	–	–
C#Cc1c(F)ccc2cc(O)cc(-c3nc4c5c(nc(OC[C@@]67CCCN6C[C@H](F)C7)nc5c3F)N(Cc3ccccc3)[C@H](CO)CO4)c12 [Example 81, 4-[(9R)-10-benzyl-4-fluoro-2-{[(2R,7aS)-2-fluorotetrahydro-1H-pyrrolizin-7a(5H)-yl]methoxy}-9-(hydroxymethyl)-9,10-dihydro-8H-7-oxa-1,3,6,10-tetraazacyclohepta[1,2,3-de]naphthalen-5-yl]-5-ethynyl-6-fluoronaphthalen-2-ol]	> 3000 nM	> 3000 nM	> 3000 nM	–	–	–
C#Cc1c(F)ccc2cc(O)cc(-c3nc4c5c(nc(OC[C@@]67CCCN6C[C@H](F)C7)nc5c3F)N3C[C@@H](O)CC[C@H]3CO4)c12 [Example 86, (8aS,11S)-5-(8-ethynyl-7-fluoro-3-hydroxynaphthalen-1-yl)-4-fluoro-2-{[(2R,7aS)-2-fluorotetrahydro-1H-pyrrolizin-7a(5H)-yl]methoxy}-8,8a,9,10,11,12-hexahydro-7-oxa-1,3,6,12a-tetraazabenzo[4,5]cyclohepta[1,2,3-de]naphthalen-11-7ol]	105 nM	9.1 nM	28.3 nM	–	–	–
C#Cc1c(F)ccc2cc(O)cc(-c3nc4c5c(nc(OC[C@@]67CCCN6C[C@H](F)C7)nc5c3F)N3C[C@H](O)CC[C@@H]3CO4)c12 [Example 87, (8aR,11R)-5-(8-ethynyl-7-fluoro-3-hydroxynaphthalen-1-yl)-4-fluoro-2-{[(2R,7aS)-2-fluorotetrahydro-1H-pyrrolizin-7a(5H)-yl]methoxy}-8,8a,9,10,11,12-hexahydro-7-oxa-1,3,6,12a-tetraazabenzo[4,5]cyclohepta[1,2,3-de]naphthalen-11-ol]	686 nM	64.5 nM	132 nM	–	–	–
C#Cc1c(F)ccc2cc(O)cc(-c3nc4c5c(nc(OC[C@@]67CCCN6C[C@H](F)C7)nc5c3F)N[C@@H](CC)CO4)c12 [Example 90, 4-[(9S)-9-ethyl-4-fluoro-2-{[(2R,7aS)-2-fluorotetrahydro-1H-pyrrolizin-7a(5H)-yl]methoxy}-9,10-dihydro-8H-7-oxa-1,3,6,10-tetraazacyclohepta[1,2,3-de]naphthalen-5-yl]-5-ethynyl-6-fluoronaphthalen-2-ol]	1950 nM	189 nM	754 nM	–	–	–
C#Cc1c(F)ccc2cc(O)cc(-c3nc4c5c(nc(OC[C@@]67CCCN6C[C@H](F)C7)nc5c3F)N(C)[C@H](CO)CO4)c12 [Example 91, 5-ethynyl-6-fluoro-4-[(9R)-4-fluoro-2-{[(2R,7aS)-2-fluorotetrahydro-1H-pyrrolizin-7a(5H)-yl]methoxy}-9-(hydroxymethyl)-10-methyl-9,10-dihydro-8H-7-oxa-1,3,6,10-tetraazacyclohepta[1,2,3-de]naphthalen-5-yl]naphthalen-2-ol]	> 3000 nM	543 nM	923 nM	–	–	–
CCc1c(F)ccc2cc(O)cc(-c3nc4c5c(nc(OC[C@@]67CCCN6C[C@H](F)C7)nc5c3F)N(C)[C@H](CO)CO4)c12 [Example 92, 5-ethyl-6-fluoro-4-[(9R)-4-fluoro-2-{[(2R,7aS)-2-fluorotetrahydro-1H-pyrrolizin-7a(5H)-yl]methoxy}-9-(hydroxymethyl)-10-methyl-9,10-dihydro-8H-7-oxa-1,3,6,10-tetraazacyclohepta[1,2,3-de]naphthalen-5-yl]naphthalen-2-ol]	579 nM	348 nM	393 nM	–	–	–
